Measurements published in US9012395B2, “Treatment of extracellular matrix to reduce inflammation” (The Cleveland Clinic Foundation, priority 2011, dated 2015).

Experiment: Solubility of HA

hyaluronan [HA]
Concentration of HA solutions that can be prepared: ≥ 20 mg/mL
